Data reported in patent publication US20020193441A1, “Prostanoid therapies for the treatment of glaucoma” (priority 2001, published 2002).

How the values were obtained:
[1] = test system: patients with open-angle glaucoma or ocular hypertension; assay: Clinical studies of travoprost (six, nine and twelve month studies pooled): IOP in black v. non-black patients; type: in vivo, human; conditions: for Mean IOP (overall) / IOP change from baseline: combined over visit and time of day; for Mean IOP (overall): pooled; for IOP change from baseline: three studies pooled, intent-to-treat
Procedure: The ability of travoprost to lower IOP was evaluated in three separate clinical trials, each involving the evaluation of both a low (0.0015%) and a high (0.004%) concentration composition. The studies differed in length, one lasting six months (hereinafter “six month study”), one lasting nine months (hereinafter “nine month study”) and one lasting twelve months (hereinafter “twelve month study”). The twelve month study was a triple-masked, parallel group, primary therapy study of the safety and efficacy of travoprost 0.0015% and travoprost 0.004% compared to timolol 0.5% and latanoprost 0.005% in patients with open-angle glaucoma or ocular hypertension. The term triple-masked is synonymous with the ICH E3 definition of double-blind. Patients of any race and either sex with open-angle glaucoma (with or without dispersion or pseudoexfoliation component) or ocular hypertension were qualified to participate in the studies. Pursuant to the study protocol, one group received travoprost 0.0015% topical ocular solution and dropped one drop once-daily in each eye at 8:00 p.m. A second group received travoprost 0.004% topical ocular solution and dropped one drop, once-daily in each eye at 8:00 p.m. A third group received vehicle only (placebo) and dropped one drop, once-daily in each eye at 8:00 a.m. A fourth group received timolol 0.5% topical ocular solution and dropped one drop, twice-daily in each eye at 8:00 a.m. and 8:00 p.m. A fifth group received latanoprost 0.005% topical ocular solution and dropped one drop, once-daily in each eye at 8:00 p.m. For evaluation purposes, the primary efficacy variable was mean intraocular pressure (IOP) in patient's worse eye. Safety was based on ocular and systemic parameters including hyperemia, flare, iris color, visual acuity, slit-lamp examinations, endothelial cell density, pachymetry, blood pressure and pulse, laboratory assessments, dilated fundus examinations, automated perimetry and adverse events. Repeated measures analysis of variance was used to test differences among treatment groups and to calculate 95% confidence limits about the differences between groups. The six month study was a triple-masked, parallel group, primary therapy study of the safety and efficacy of travoprost 0.0015% and travoprost 0.004% compared to timolol 0.5% in patients with open-angle glaucoma or ocular hypertension. The term triple-masked is synonymous with the ICH E3 definition of double-blind. Patients of any race and either sex with open-angle glaucoma (with or without dispersion or pseudoexfoliation component) or ocular hypertension were qualified to participate in the studies. Pursuant to the study protocol, one group received travoprost 0.0015% topical ocular solution and dropped one drop once-daily in each eye at 8:00 p.m. A second group received travoprost 0.004% topical ocular solution and dropped one drop, once-daily in each eye at 8:00 p.m. A third group received vehicle only (placebo) and dropped one drop, once-daily in each eye at 8:00 a.m. A fourth group received timolol 0.5% topical ocular solution and dropped one drop, twice-daily in each eye at 8:00 a.m. and 8:00 p.m. For evaluation purposes, the primary efficacy variable was mean intraocular pressure (IOP) in patient's worse eye. Safety was based on ocular and systemic parameters including hyperemia, aqueous cells and flare, iris pigmentation, visual acuity, slit-lamp biomicroscopy, blood pressure and pulse, laboratory assessments, dilated fundus examinations, automated perimetry and adverse events. Repeated measures analysis of variance was used to test differences among treatment groups and to calculate 95% confidence limits about the differences between groups. The nine month study was a triple-masked, parallel group, primary therapy study of the safety and efficacy of travoprost 0.0015% and travoprost 0.004% compared to timolol 0.5% and latanoprost 0.005% in patients with open-angle glaucoma or ocular hypertension. […]

[2] = test system: black and non-black patients; assay: Dose-response evaluations: travoprost concentration and IOP response in black and non-black patients; type: in vivo, human
Excerpt: Dose-response studies were undertaken to evaluate the relationship between travoprost and IOP response in black and non-black patients. […] FIG. 1 depicts the relationship between log concentration and IOP for black patients versus non-black patients. For black patients, IOP went from approximately 28 mmHg at a concentration of 0.00009% travoprost to approximately 18.5 mmHg at 0.004% travoprost. For non-black patients, IOP went from approximately 23 mmHg at 0.00009% travoprost to approximately 18 mmHg at 0.004% travoprost. FIG. 2 depicts the relationship between log concentration and IOP change. IOP change went from approximately −1 mmHg to approximately −7.75 mmHg for black patients and from approximately −3.25 mmHg to approximately −7.25 mmHg for non-black patients. FIGS. 1 and 2 depict a comparison of IOP or IOP change to log concentration to illustrate the significance of the dose-response difference between the two groups. FIGS. 3 and 4 depict the same relationships using actual concentrations.

[3] = travoprost 0.0015%, black patients
[4] = travoprost 0.0015%, non-black patients
[5] = travoprost 0.004%, black patients
[6] = travoprost 0.004%, non-black patients

SMILES: CC(C)OC(=O)CCC/C=C\C[C@@H]1[C@@H](/C=C/[C@@H](O)COc2cccc(C(F)(F)F)c2)[C@H](O)C[C@@H]1O [Travoprost, travoprost]
- Further IOP reduction when dose increased from 0.0015% to 0.004% ([1]; blacks): statistically significant further reduction
- Further IOP reduction when dose increased from 0.0015% to 0.004% ([1]; caucasians (non-blacks)): no further reduction
- Subgroup difference in mean IOP between black and non-black patients (analysis of variance) ([1]; travoprost 0.0015% analysis): No statistically significant subgroup differences
- Difference in IOP change from baseline between blacks and non-blacks ([1]; travoprost 0.0015% dose): no significant difference
- Mean IOP (combined over visit) ([1]; travoprost 0.0015%, black patients, 4 p.m.): 17.8 mmHg
- Mean IOP (combined over visit) ([1]; travoprost 0.0015%, black patients, 8 a.m.): 19.6 mmHg
- Mean IOP (combined over visit) ([1]; travoprost 0.0015%, black patients, 10 a.m.): 18.4 mmHg
- Mean IOP (overall) [1, 3]: 18.6 mmHg
- IOP change from baseline [1, 3]: −7.1 mmHg
- Mean IOP (combined over visit) ([1]; travoprost 0.0015%, non-black patients, 4 p.m.): 18.2 mmHg
- Mean IOP (combined over visit) ([1]; travoprost 0.0015%, non-black patients, 8 a.m.): 19.4 mmHg
- Mean IOP (combined over visit) ([1]; travoprost 0.0015%, non-black patients, 10 a.m.): 18.5 mmHg
- Mean IOP (overall) [1, 4]: 18.7 mmHg
- IOP change from baseline [1, 4]: −7.1 mmHg
- Subgroup difference in mean IOP between black and non-black patients (analysis of variance) ([1]; travoprost 0.004% analysis): significant subgroup difference
- Subgroup difference in mean IOP, black lower than non-black ([1]; travoprost 0.004%, 4 PM): 1.1 mmHg
- Subgroup difference in mean IOP, black lower than non-black ([1]; travoprost 0.004%, 8 AM): 0.8 mmHg
- Subgroup difference in mean IOP, black lower than non-black ([1]; travoprost 0.004%, 10 AM): 1.5 mmHg
- Mean IOP (combined over visit) ([1]; travoprost 0.004%, black patients, 4 p.m.): 16.8 mmHg
- Mean IOP (combined over visit) ([1]; travoprost 0.004%, black patients, 8 a.m.): 18.6 mmHg
- Mean IOP (combined over visit) ([1]; travoprost 0.004%, black patients, 10 a.m.): 16.8 mmHg
- Mean IOP (overall) [1, 5]: 17.4 mmHg
- IOP change from baseline [1, 5]: −8.1 mmHg
- Difference in mean IOP, black lower than non-black ([1]; travoprost 0.004%, combined (8 a.m., 10 a.m., and 4 p.m.) results): up to 1.5 mmHg
- Mean IOP (combined over visit) ([1]; travoprost 0.004%, non-black patients, 4 p.m.): 18.0 mmHg
- Mean IOP (combined over visit) ([1]; travoprost 0.004%, non-black patients, 8 a.m.): 19.3 mmHg
- Mean IOP (combined over visit) ([1]; travoprost 0.004%, non-black patients, 10 a.m.): 18.3 mmHg
- Mean IOP (overall) [1, 6]: 18.5 mmHg
- IOP change from baseline [1, 6]: −7.5 mmHg
- Difference in mean IOP, black lower than non-black ([1]; travoprost 0.004%, overall result): 1.1 mmHg
- IOP (FIG. 1) ([2]; 0.00009% travoprost, black patients): approximately 28 mmHg
- IOP (FIG. 1) ([2]; 0.00009% travoprost, non-black patients): approximately 23 mmHg
- IOP (FIG. 1) ([2]; 0.004% travoprost, black patients): approximately 18.5 mmHg
- IOP (FIG. 1) ([2]; 0.004% travoprost, non-black patients): approximately 18 mmHg
- Dose-response based on comparison slopes ([2]; black patients compared with non-black patients): much more pronounced dose-response
- IOP change (FIG. 2) ([2]; black patients, high end of concentration range ('to')): approximately −7.75 mmHg
- IOP change (FIG. 2) ([2]; black patients, low end of concentration range ('from')): approximately −1 mmHg
- Mean IOP versus dose ([2]; both race subgroups): reduced significantly with increasing dose
- IOP change (FIG. 2) ([2]; non-black patients, high end of concentration range ('to')): approximately −7.25 mmHg
- IOP change (FIG. 2) ([2]; non-black patients, low end of concentration range ('from')): approximately −3.25 mmHg
